# Experimental data from paper PMC3326528 (Journal of the American Chemical Society, 2007).
# pKd: −log10 of the molar value.
# What was measured:
# [1] = system: FDAS; test: Discontinuous assay of FDAS; format: biochemical, Streptomyces cattleya; settings: turnover at a fixed substrate concentration compared to the wild type
# [2] = biological target: T1, FDAS (Streptantibioticus cattleyicolor, UniProt Q70GK9); test: Active site titration of FDAS; format: biochemical, Streptomyces cattleya
# [3] = biological target: FDAS (native, wild type) (Streptantibioticus cattleyicolor, UniProt Q70GK9); test: Isothermal titration calorimetry; format: binding
# [4] = biological target: apo FDAS (Streptantibioticus cattleyicolor, UniProt Q70GK9); test: ITC binding of ligands to apo FDAS; design: species or system Streptomyces cattleya; settings: for Stoichiometry (N) / Ka (app) / S / ΔH: 25 °C; for Stoichiometry (N): 20mM sodium phosphate buffer (pH 7.8), apo FDAS; for Ka (app) / S / ΔH: pH 7.8, apo FDAS
# [5] = biological target: FDAS pre-incubated with adenosine (Streptantibioticus cattleyicolor, UniProt Q70GK9); settings: 1mM L-methionine titrated into 0.024 mM Adenosine and 0.02 mM apo FDAS mixture
# [6] = biological target: FDAS pre-incubated with 5′-FDA (Streptantibioticus cattleyicolor, UniProt Q70GK9); settings: 1mM L-methionine titrated into 0.08 mM FDA and 0.02 mM apo FDAS mixture
# [7] = biological target: T1, FDAS; test: Reactivity of SAH / homocysteine with FDAS; format: biochemical, Streptomyces cattleya
# [8] = biological target: T1, FDAS; test: Discontinuous assay of FDAS; format: biochemical, Streptomyces cattleya; settings: F^− 200mM
# [9] = biological target: D16N mutation of FDAS (Streptantibioticus cattleyicolor, UniProt Q70GK9, D16N); test: ITC binding of SAM to D16N mutant; design: species or system Streptomyces cattleya
Molecule,pKd [3],Stoichiometry (N) ([4]; ITC),Ka (app) ([4]; ITC),S ([4]; ITC),ΔH ([4]; ITC),other results
5′-fluoro-5′-deoxy adenosine synthetase [FDAS],–,–,–,–,–,"% activity [1]: 100%; burst size (active sites) ([2]; 50 μM SAM mixed with FDAS (2 μM), reaction initiated with 100 mM F^−): 0.1 µM; burst size (active sites) ([2]; 100 mM F^− pre-mixed with FDAS (2 μM), reaction initiated by 50 μM SAM): 0.6 µM"
"Nc1ncnc2c1ncn2[C@@H]1O[C@H](CO)C[C@H]1O [3′-deoxy-Ade, 3′-deoxyadenosine]",5.65,–,–,–,–,–
Nc1ncnc2c1ncn2[C@@H]1O[C@H](CO)C[C@H]1O [3′-deoxy-Ade],–,0.37 ± 0.02,4.5 ± 0.6 ×10^5 M^−1,-0.027 kcal/mol,-16 ± 0.9 kcal/mol,reduction of affinity relative to adenosine ([4]; ITC): 3 fold
"Nc1ncnc2c1ncn2[C@@H]1O[C@H](CO)[C@@H](O)[C@H]1O [Ade, adenosine]",6.09,0.67 ± 0.01,12.2 ± 1.2 ×10^5 M^−1,-0.04 kcal/mol,-20 ± 0.4 kcal/mol,–
"Nc1ncnc2c1ncn2[C@@H]1O[C@H](CF)[C@@H](O)[C@H]1O [FDA, 5′-fluoro-5′-deoxy adenosine]",–,1.16 ± 0.01,45.5 ± 6.5 ×10^5 M^−1,-0.017 kcal/mol,-14 ± 0.1 kcal/mol,–
"Nc1ncnc2c1ncn2[C@@H]1O[C@H](CF)[C@@H](O)[C@H]1O [FDA, 5′-fluoro-5′-deoxyadenosine (5′-FDA)]",6.66,–,–,–,–,–
CSCC[C@H](N)C(=O)O [L-methionine],–,–,–,–,–,S [5]: -0.022 kcal/mol; Stoichiometry (N) [5]: 0.48 ± 0.11; ΔH [5]: -13 ± 3 kcal/mol; S [6]: -0.036 kcal/mol; ΔH [6]: -17 ± 2 kcal/mol
"Nc1ncnc2c1ncn2[C@@H]1O[C@H](CSCC[C@H](N)C(=O)O)[C@@H](O)[C@H]1O [SAH, S-adenosyl homocysteine]",7.48,0.72 ± 0.01,302 ± 74 ×10^5 M^−1,-0.098 kcal/mol,-40 ± 0.5 kcal/mol,effect on the reaction of SAM with F^− [7]: inhibits; substrate of FDAS in the forward direction [7]: not a substrate; 5′-ClDA production by the enzyme ([7]; incubation of Cl^− and SAH): does not produce 5′-ClDA; binding affinity relative to SAM (times more tightly bound) ([4]; ITC): 40 times
"C[S+](CC[C@H](N)C(=O)[O-])C[C@H]1O[C@@H](n2cnc3c(N)ncnc32)[C@H](O)[C@@H]1O (stereo partly drawn) [SAM, S-adenosyl-L-methionine]",5.90,0.56 ± 0.01,8.0 ± 0.5 ×10^5 M^−1,-0.058 kcal/mol,-25 ± 0.4 kcal/mol,SAM concentration above which FDAS displays substrate inhibition [8]: greater than 20 μM; SAM binding by ITC [9]: does not bind with measurable affinity
F [fluoride],–,–,–,–,–,binding to the protein by ITC ([4]; either as apo or SAH complex): too weak to measure
NC(CCS)C(=O)O (stereo not shown) [homocysteine],–,–,–,–,–,"SAH production by the enzyme (HPLC) ([7]; 5-ClDA and homocysteine): nor is any detected; SAH production by the enzyme (HPLC) ([7]; homocysteine and 5′-FDA, reverse reaction): no detectable production of SAH"
